Laboratory results published in the supplement of paper PMC10307832.

Experiments:
Assay in all cases: relative viability (nuclei count vs DMSO), 5 days (fraction); higher = more cells survive
[1] = compound: C=CCn1c(=O)c2cnc(Nc3ccc(N4CCN(C)CC4)cc3)nc2n1-c1cccc(C(C)(C)O)n1 [Adavosertib] + CC(=O)c1c(C)c2cnc(Nc3ccc(N4CCNCC4)cn3)nc2n(C2CCCC2)c1=O [Palbociclib] (partner 0.5 µM)
In short: (§1)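 Each reported value is a median over duplicate plates. It expresses relative viability: treated-well nuclei count divided by vehicle-well nuclei count. Lung cancer cell lines in 1536-well plates were dosed by pin tool a day after seeding, alone with one drug or with a fixed anchor-drug dose plus five library-drug doses (not always all listed) in √10 steps, and nuclei were counted after 5 days.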

Nelarabine + Pictilisib = compound: COc1nc(N)nc2c1ncn2[C@@H]1O[C@H](CO)[C@@H](O)[C@@H]1O [Nelarabine] + CS(=O)(=O)N1CCN(Cc2cc3nc(-c4cccc5[nH]ncc45)nc(N4CCOCC4)c3s2)CC1 [Pictilisib] (partner 1 µM)
In short: as §1

Adavosertib + Alpelisib = compound: C=CCn1c(=O)c2cnc(Nc3ccc(N4CCN(C)CC4)cc3)nc2n1-c1cccc(C(C)(C)O)n1 [Adavosertib] + Cc1nc(NC(=O)N2CCC[C@H]2C(N)=O)sc1-c1ccnc(C(C)(C)C(F)(F)F)c1 [Alpelisib] (partner 2 µM)
In short: as §1

Nelarabine + Pemetrexed = compound: COc1nc(N)nc2c1ncn2[C@@H]1O[C@H](CO)[C@@H](O)[C@@H]1O [Nelarabine] + Nc1nc2[nH]cc(CCc3ccc(C(=O)N[C@@H](CCC(=O)O)C(=O)O)cc3)c2c(=O)[nH]1 [Pemetrexed] (partner 0.2 µM)
In short: as §1

Row | Cell Line | relative viability ([1]; first compound 0.01 µM) | relative viability ([1]; first compound 0.03162 µM) | relative viability ([1]; first compound 0.1 µM) | relative viability ([1]; first compound 0.3162 µM) | relative viability (Nelarabine + Pictilisib; first compound 0.01 µM) | relative viability (Nelarabine + Pictilisib; first compound 0.03162 µM) | relative viability (Nelarabine + Pictilisib; first compound 0.1 µM) | relative viability (Nelarabine + Pictilisib; first compound 0.3162 µM) | relative viability (Nelarabine + Pictilisib; first compound 1 µM) | relative viability (Adavosertib + Alpelisib; first compound 0.01 µM) | relative viability (Adavosertib + Alpelisib; first compound 0.03162 µM) | relative viability (Adavosertib + Alpelisib; first compound 0.1 µM) | relative viability (Adavosertib + Alpelisib; first compound 0.3162 µM) | relative viability (Nelarabine + Pemetrexed; first compound 0.01 µM) | relative viability (Nelarabine + Pemetrexed; first compound 0.03162 µM) | relative viability (Nelarabine + Pemetrexed; first compound 0.1 µM) | relative viability (Nelarabine + Pemetrexed; first compound 0.3162 µM) | relative viability (Nelarabine + Pemetrexed; first compound 1 µM)
1 | NCI-H727 | 0.584 | 0.699 | 0.637 | 0.658 | 0.581 | 0.476 | 0.348 | 0.397 | 0.302 | 0.545 | 0.593 | 0.629 | 0.577 |  |  |  |  | 
2 | EBC-1 |  |  |  |  | 0.372 | 0.284 | 0.407 | 0.329 | 0.461 | 0.98 | 0.843 | 0.921 | 0.81 |  |  |  |  | 
3 | NCI-H1563 |  |  |  |  | 0.605 | 0.634 | 0.641 | 0.67 | 0.626 | 0.924 | 0.943 | 0.949 | 1.12 | 0.765 | 0.811 | 0.77 | 0.812 | 0.787
4 | IA-LM |  |  |  |  | 0.369 | 0.343 | 0.22 | 0.259 | 0.328 | 0.649 | 0.731 | 0.833 | 0.931 |  |  |  |  | 
5 | NCI-H1299 |  |  |  |  | 1.06 | 0.899 | 0.857 | 0.861 | 0.757 | 1.06 | 0.979 | 1.07 | 0.997 |  |  |  |  | 
6 | NCI-H1703 |  |  |  |  | 0.248 |  | 0.237 | 0.211 | 0.227 | 0.367 | 0.361 | 0.304 | 0.147 |  |  |  |  | 
7 | Calu-6 |  |  |  |  | 1.15 | 0.856 | 0.977 | 0.891 | 0.962 | 0.983 | 0.856 | 0.94 | 0.793 |  |  |  |  | 
8 | NCI-H522 | 1.02 | 1.1 | 1.21 | 1.06 |  |  |  |  |  |  |  |  |  | 1.1 | 0.923 | 1.03 | 0.999 | 1.11
9 | NCI-H1650 | 0.295 | 0.34 | 0.289 | 0.293 | 0.742 | 0.666 | 0.476 | 0.559 | 0.591 |  |  |  |  | 0.531 | 0.406 | 0.381 | 0.432 | 0.343
10 | NCI-H596 |  |  |  |  | 0.402 | 0.445 | 0.399 | 0.376 | 0.446 | 0.51 | 0.464 | 0.457 | 0.422 | 0.504 | 0.517 | 0.574 | 0.492 | 0.491
11 | NCI-H2342 | 0.5 | 0.526 | 0.509 | 0.566 |  |  |  |  |  |  |  |  |  | 0.901 | 0.659 | 0.681 | 0.817 | 0.801
12 | A549 |  |  |  |  | 0.729 | 0.546 | 0.499 | 0.577 | 0.463 | 0.813 | 0.896 | 0.957 | 0.804 |  |  |  |  | 
13 | ABC-1 | 0.736 | 0.745 | 0.777 | 0.896 | 0.901 | 0.828 | 0.584 | 1.01 | 0.756 | 0.993 | 1.04 | 1.28 | 1.08 |  |  |  |  | 
14 | ChaGo-K-1 | 0.884 | 0.949 | 1.01 | 0.885 | 0.699 | 0.611 | 0.934 | 0.678 | 0.743 |  |  |  |  | 0.242 | 0.249 | 0.261 | 0.258 | 0.252
